Assay results from publication PMC6104039 (Nature Communications, 2018).
Values joined by “and” are separate entries in the source; they are usually repeats but may differ in a detail not shown here. Equal entries are not always repeated.

Experiments:
[1] = system: liver; test: Mitochondrial markers in liver (Western blots, citrate synthase, βHAD); set-up: species or system mice; conditions: mouse, in vivo
Procedure: Tissues were homogenized in RIPA buffer (100 mM NaCl, 10 mM Tris, pH 7.4, 1% Triton X-100, 0.5% sodium deoxycholate, 0.1% SDS, 1 mM EDTA, 10% Glycerol) containing complete protease inhibitor cocktail (Roche) and phosphatase inhibitors (3 mM β-glycerophosphate, 1 mM sodium orthovanadate, 5 mM sodium fluoride) by bead-beating in a Precellys 24 at 4 °C. Extracts were centrifuged at 6500 rpm for 10 min at 4 °C. Supernatant was collected and protein concentrations determined with the Bicinchoninic acid (BCA) assay (Thermo Scientific). […] All antibodies were used at a dilution of 1:1000. A common loading control was included on every gel to account for variation in relative band intensities between different blots. Antibody-antigen binding was detected using ECL Reagent (GE Healthcare) and imaged on a Fujifilm Las-4000 CCD camera. Bands were quantified by densitometry with Fuji ImageQuantTL software.
Liver and tibialis muscle were homogenized 1:19 (w/v) in 50 mM Tris-HCl, 1 mM EDTA, 0.1% Triton X-100, pH 7.4. The homogenates were subjected to three freeze-thaw cycles and centrifuged for 10 min at 7000 × g at 4 °C. Supernatants were used to determine the activity of CS and βHAD[66].

[2] = system: gastrocnemius muscle; test: Targeted analysis of ceramide, SM and HexCer in gastrocnemius muscle; assay type: in vivo, mice; set-up: HexCer 18:1/22:0 content of gastrocnemius muscle / SM 34:1 content of gastrocnemius muscle / SM 34:2 content of gastrocnemius muscle / SM 36:2 content of gastrocnemius muscle / SM 36:1 content of gastrocnemius muscle / SM 40:1 content of gastrocnemius muscle / SM 42:2 content of gastrocnemius muscle / SM 42:1 content of gastrocnemius muscle / Cer 18:1/16:0 content of gastrocnemius muscle / Cer 18:1/18:0 content of gastrocnemius muscle / Cer 18:2/18:0 content of gastrocnemius muscle / Cer 18:0/18:0 content of gastrocnemius muscle / Cer 18:1/22:0 content of gastrocnemius muscle / Cer 18:1/24:1 content of gastrocnemius muscle / Cer 18:0/24:1 content of gastrocnemius muscle / Cer 18:1/24:0 content of gastrocnemius muscle / HexCer 18:1/16:0 content of gastrocnemius muscle / HexCer 18:1/18:0 content of gastrocnemius muscle / HexCer 18:1/20:0 content of gastrocnemius muscle: unit not given beside the values
[3] = system: SkM homogenates; test: 14C-palmitate oxidation in SkM homogenates of treated mice; assay type: in vivo; conditions: chow and HFD-fed mice, 6 weeks
Procedure: Tibialis muscles were homogenized in 19 volumes of 250 mM sucrose, 10 mM Tris-HCl and 1 mM EDTA, pH 7.4.

[4] = system: SkM; test: Mitochondrial DNA content of SkM by quantitative PCR; assay type: in vivo, mice
Procedure: Total DNA was isolated using standard phenol:chloroform extraction, followed by RNase H (NEB) treatment. Relative levels of nuclear and mitochondrial DNA were determined by quantitative PCR on a LightCycler 480 (Roche) using SensiFAST SYBR mastermix (Bioline). Primers for quantification of genomic DNA were: 5′- […]-3′, and 5′- […]-3′; and mitochondrial DNA: 5′- […]-3′, and 5′- […]-3′[73]. Calibration curves of Ct against input DNA were prepared from a pooled sample of mouse SkM DNA, and used to calculate the relative abundance of mitochondrial to nuclear DNA in each sample.

C[C@@](N)(CO)CCc1ccc(OCc2ccc(Cl)c(Cl)c2)cc1 [P053, (S)-2-amino-4-(4-(3,4-dichlorobenzyloxy)phenyl)-2-methylbutan-1-ol]
mitochondrial markers in liver [1]: no increase | C18 ceramide, C18 dihydroceramide and 18:2/18:0 ceramide in gastrocnemius muscle ([2]; 5 mg/kg daily): significant reductions | Cer 18:0/18:0 content of gastrocnemius muscle ([2]; Chow + P053, individual mice): 6.716 and 7.477 and 5.961 and 6.052 and 7.077 and 6.063 and 5.232 and 5.747 and 5.304 and 6.401 | Cer 18:0/24:1 content of gastrocnemius muscle ([2]; Chow + P053, individual mice): 3.2091 and 2.598 and 3.667 and 1.8279 and 1.954 and 2.772 and 2.055 and 2.027 and 2.139 and 3.699 | Cer 18:1/16:0 content of gastrocnemius muscle ([2]; Chow + P053, individual mice): 0.3484 and 0.3091 and 0.3437 and 0.3068 and 0.4605 and 0.637 and 0.2188 and 0.4293 and 0.2277 and 0.4584 | Cer 18:1/18:0 content of gastrocnemius muscle ([2]; Chow + P053, individual mice): 20.203 and 22.2043 and 20.4893 and 19.2549 and 21.0178 and 15.4813 and 13.2288 and 14.0008 and 17.6182 and 17.1195 | Cer 18:1/20:0 content of gastrocnemius muscle ([2]; Chow + P053, individual mice): 0.4999 and 0.7758 and 0.6909 and 0.4845 and 0.671 and 0.9486 and 0.5576 and 0.508 and 0.7146 and 0.7451 | Cer 18:1/22:0 content of gastrocnemius muscle ([2]; Chow + P053, individual mice): 2.697 and 2.247 and 2.924 and 2.061 and 2.474 and 3.27 and 1.828 and 2.047 and 1.902 and 3.1173 | Cer 18:1/24:0 content of gastrocnemius muscle ([2]; Chow + P053, individual mice): 7.198 and 5.637 and 7.43 and 4.359 and 4.709 and 6.914 and 4.421 and 4.245 and 5.265 and 6.526 | Cer 18:1/24:1 content of gastrocnemius muscle ([2]; Chow + P053, individual mice): 11.8242 and 9.129 and 9.681 and 7.066 and 8.758 and 11.6384 and 7.885 and 7.128 and 7.643 and 10.6448 | Cer 18:2/18:0 content of gastrocnemius muscle ([2]; Chow + P053, individual mice): 0.4658 and 0.5512 and 0.4225 and 0.4514 and 0.5661 and 0.3835 and 0.2283 and 0.4455 and 0.4165 and 0.4597 | HexCer 18:1/16:0 content of gastrocnemius muscle ([2]; Chow + P053, individual mice): 0.2006 and 0.1094 and 0.05472 and 0.08462 and 0.1035 and 0.3016 and 0.02008 and 0.2899 and 0.1794 and 0.1526 | HexCer 18:1/18:0 content of gastrocnemius muscle ([2]; Chow + P053, individual mice): 2.77 and 1.138 and 0.685 and 0.5505 and 1.7658 and 1.01 and 1.02 and 3.397 and 2.789 and 0.3088 | HexCer 18:1/20:0 content of gastrocnemius muscle ([2]; Chow + P053, individual mice): 4.98 and 2.2562 and 1.185 and 0.63 and 2.136 and 1.46 and 2.186 and 5.934 and 4.2225 and 0.5191 | HexCer 18:1/22:0 content of gastrocnemius muscle ([2]; Chow + P053, individual mice): 28.6994 and 10.5255 and 7.341 and 3.05 and 12.9786 and 10.4072 and 8.903 and 30.0855 and 20.1916 and 3.513 | HexCer 18:1/22:1 content of gastrocnemius muscle ([2]; Chow + P053, individual mice): 2.443 and 0.8441 and 0.5964 and 0.2415 and 0.9642 and 0.3777 and 0.6547 and 2.558 and 1.9817 and 0.2068 | HexCer 18:1/24:0 content of gastrocnemius muscle ([2]; Chow + P053, individual mice): 131.55 and 47.7053 and 35.5956 and 20.727 and 57.5213 and 45.8559 and 36.9456 and 110.769 and 86.5459 and 16.7978 | HexCer 18:1/24:1 content of gastrocnemius muscle ([2]; Chow + P053, individual mice): 55.5818 and 22.7923 and 17.8764 and 8.062 and 22.9046 and 20.0825 and 17.0776 and 61.9168 and 40.6919 and 8.475 | SM 34:1 content of gastrocnemius muscle ([2]; Chow + P053, individual mice): 55.2092 and 65.2319 and 37.406 and 53.6606 and 49.036 and 73.0423 and 41.7651 and 81.6186 and 53.5156 and 54.7372 | SM 34:2 content of gastrocnemius muscle ([2]; Chow + P053, individual mice): 2.561 and 2.363 and 1.4133 and 1.332 and 1.809 and 2.655 and 1.68 and 2.4957 and 1.926 and 1.425 | SM 36:1 content of gastrocnemius muscle ([2]; Chow + P053, individual mice): 242.303 and 230.3 and 206.587 and 243.389 and 210.049 and 199.927 and 174.992 and 270.736 and 215.295 and 156.154 | SM 36:2 content of gastrocnemius muscle ([2]; Chow + P053, individual mice): 3.724 and 3.017 and 3.098 and 3.4 and 2.856 and 3.2428 and 2.648 and 4.315 and 4.019 and 3.053 | SM 40:1 content of gastrocnemius muscle ([2]; Chow + P053, individual mice): 97.5537 and 51.1596 and 53.7207 and 21.6057 and 37.8369 and 48.3173 and 39.3705 and 88.0525 and 69.3339 and 48.817 | SM 42:1 content of gastrocnemius muscle ([2]; Chow + P053, individual mice): 88.2897 and 52.3856 and 29.1894 and 16.6817 and 42.3452 and 43.7529 and 25.0289 and 89.171 and 54.8125 and 29.4411 | SM 42:2 content of gastrocnemius muscle ([2]; Chow + P053, individual mice): 288.299 and 175.495 and 168.331 and 87.7791 and 166.49 and 221.175 and 113.727 and 338.716 and 212.277 and 185.512 | Cer 18:0/18:0 content of gastrocnemius muscle ([2]; HFD + P053, individual mice): 6.696 (2×) and 6.991 and 7.614 and 9.306 and 10.4442 and 6.363 and 5.154 and 5.258 and 4.509 | Cer 18:0/24:1 content of gastrocnemius muscle ([2]; HFD + P053, individual mice): 4.519 and 1.914 and 1.715 and 1.673 and 2.381 and 12.1481 and 1.438 and 1.998 and 3.6 and 0.9202 | Cer 18:1/16:0 content of gastrocnemius muscle ([2]; HFD + P053, individual mice): 0.2953 and 0.2425 and 0.247 and 0.3667 and 0.6053 and 1.286 and 0.3154 and 0.1867 and 0.2439 and 0.2642 | Cer 18:1/18:0 content of gastrocnemius muscle ([2]; HFD + P053, individual mice): 21.9657 and 17.6562 and 21.0561 and 17.8475 and 19.1897 and 17.6974 and 13.2972 and 14.5082 and 22.6242 and 9.617 | Cer 18:1/20:0 content of gastrocnemius muscle ([2]; HFD + P053, individual mice): 1.3 and 0.9773 and 1.039 and 0.7088 and 1.3618 and 1.151 and 0.5199 and 0.8084 and 1.045 and 0.6734 | Cer 18:1/22:0 content of gastrocnemius muscle ([2]; HFD + P053, individual mice): 6.663 and 2.886 and 2.627 and 3.138 and 3.9433 and 5.15 and 2.442 and 3.877 and 4.12 and 2.291 | Cer 18:1/24:0 content of gastrocnemius muscle ([2]; HFD + P053, individual mice): 8.75 and 4.723 and 4.013 and 4.317 and 4.82 and 10.8999 and 3.077 and 4.318 and 7.266 and 2.309 | Cer 18:1/24:1 content of gastrocnemius muscle ([2]; HFD + P053, individual mice): 11.3105 and 7.675 and 5.851 and 7.272 and 9.129 and 11.5338 and 5.462 and 9.029 and 11.0555 and 5.753 | Cer 18:2/18:0 content of gastrocnemius muscle ([2]; HFD + P053, individual mice): 0.4484 and 0.4926 and 0.3634 and 0.4132 and 0.2765 and 0.3608 and 0.2849 and 0.2673 and 0.3042 and 0.2757 | HexCer 18:1/16:0 content of gastrocnemius muscle ([2]; HFD + P053, individual mice): 0.07083 and 0.2298 and 0.1257 and 0.1094 and 0.2809 and 0.09552 and 0.04859 and 0.09042 and 0.2927 and 0.128 | HexCer 18:1/18:0 content of gastrocnemius muscle ([2]; HFD + P053, individual mice): 0.6278 and 2.316 and 1.725 and 1.053 and 1.514 and 0.3784 and 1.339 and 1.2334 and 3.411 and 0.7622 | HexCer 18:1/20:0 content of gastrocnemius muscle ([2]; HFD + P053, individual mice): 1.025 and 3.657 and 4.193 and 2.559 and 2.728 and 0.775 and 2.303 and 1.6216 and 6.493 and 1.535 | HexCer 18:1/22:0 content of gastrocnemius muscle ([2]; HFD + P053, individual mice): 7.522 and 16.4106 and 20.0443 and 14.4231 and 12.9484 and 5.248 and 12.5609 and 13.236 and 35.9679 and 8.484 | HexCer 18:1/22:1 content of gastrocnemius muscle ([2]; HFD + P053, individual mice): 0.5466 and 1.486 and 1.3 and 1.291 and 1.104 and 0.193 and 0.8615 and 0.6275 and 2.662 and 0.7906 | HexCer 18:1/24:0 content of gastrocnemius muscle ([2]; HFD + P053, individual mice): 35.0734 and 65.2406 and 70.8422 and 52.1762 and 47.7217 and 19.7676 and 40.4927 and 43.8786 and 131.229 and 26.1187 | HexCer 18:1/24:1 content of gastrocnemius muscle ([2]; HFD + P053, individual mice): 11.8966 and 34.458 and 33.6892 and 26.2534 and 24.7881 and 7.796 and 20.5958 and 23.2933 and 61.9739 and 13.7499 | SM 34:1 content of gastrocnemius muscle ([2]; HFD + P053, individual mice): 32.5351 and 75.4148 and 64.2595 and 68.4699 and 74.2315 and 69.3058 and 56.8022 and 63.1231 and 40.9981 and 91.0819 | SM 34:2 content of gastrocnemius muscle ([2]; HFD + P053, individual mice): 1.53 and 2.835 and 1.998 and 2 and 2.418 and 2.144 and 2.133 and 2.338 and 2.209 and 2.34 | SM 36:1 content of gastrocnemius muscle ([2]; HFD + P053, individual mice): 125.344 and 223.512 and 246.64 and 236.8 and 200.399 and 135.056 and 273.936 and 199.397 and 141.624 and 291.891 | SM 36:2 content of gastrocnemius muscle ([2]; HFD + P053, individual mice): 1.77 and 3.547 and 2.905 and 2.734 and 5.421 and 3.741 and 3.767 and 2.494 and 1.973 and 4.895 | SM 40:1 content of gastrocnemius muscle ([2]; HFD + P053, individual mice): 74.9293 and 89.7182 and 104.131 and 44.9676 and 58.8143 and 74.268 and 90.7758 and 60.0553 and 174.22 and 68.0463 | SM 42:1 content of gastrocnemius muscle ([2]; HFD + P053, individual mice): 42.7745 and 43.392 and 45.2063 and 34.368 and 60.6982 and 34.7124 and 28.1104 and 34.3376 and 109.833 and 16.1089 | SM 42:2 content of gastrocnemius muscle ([2]; HFD + P053, individual mice): 124.791 and 220.201 and 175.989 and 144.772 and 171.488 and 135.796 and 111.009 and 132.926 and 406.752 and 102.287 | oxidation of 14C-palmitate in muscle homogenates [3]: increased oxidation | mitochondrial DNA content [4]: elevated
